Laboratory results: patent US6399634B1, “Benzothiophene compounds, compositions, and methods” (Eli Lilly and Company, priority 1994, dated 2002)
Where a name gives a salt, the structure may show the parent alone.

How the values were obtained:
[1] = system: ovariectomized (OVX) rats; assay: Serum cholesterol analysis in ovariectomized rats, 4 days of dosing; format: in vivo, Sprague Dawley rats; settings: oral, daily for 4 days
Text: (§1) Seventy-five day old female Sprague Dawley rats (weight range of 200 to 225 g) were obtained from Charles River Laboratories (Portage, Mich.). The animals were either bilaterally ovariectomized (OVX) or exposed to a Sham surgical procedure at Charles River Laboratories, and then shipped after one week. Upon arrival, they were housed in metal hanging cages in groups of 3 or 4 per cage and had ad libitum access to food (calcium content approximately 0.5%) and water for one week. Room temperature was maintained at 22.2°±1.7° C. with a minimum relative humidity of 40%. The photoperiod in the room was 12 hours light and 12 hours dark.
(§2) Dosing Regimen Tissue Collection. After a one week acclimation period (therefore, two weeks post-OVX) daily dosing with test compound was initiated. 17α-ethynyl estradiol or the test compound were given orally, unless otherwise stated, as a suspension in 1% carboxymethylcellulose or dissolved in 20% cyclodextrin. Animals were dosed daily for 4 days. Following the dosing regimen, animals were weighed and anesthetized with a ketamine: Xylazine (2:1, V:V) mixture and a blood sample was collected by cardiac puncture. The animals were then sacrificed by asphyxiation with CO2, the uterus was removed through a midline incision, and a wet uterine weight was determined.
Cholesterol Analysis. Blood samples were allowed to clot at room temperature for 2 hours, and serum was obtained following centrifugation for 10 minutes at 3000 rpm. Serum cholesterol was determined using a Boehringer Mannheim Diagnostics high performance cholesterol assay. Briefly the cholesterol was oxidized to cholest-4-en-3-one and hydrogen peroxide. The hydrogen peroxide was then reacted with phenol and 4-aminophenazone in the presence of peroxidase to produce a p-quinone imine dye, which was read spectrophotemetrically at 500 nm. Cholesterol concentration was then calculated against a standard curve. The entire assay was automated using a Biomek Automated Workstation.

[2] = system: ovariectomized (OVX) rats; assay: Osteoporosis Test Procedure: femur bone density in OVX rats after 35 days of dosing; format: in vivo, Sprague Dawley rats; settings: mean ± SEM
Text: Seventy-five day old female Sprague Dawley rats (weight range of 200 to 225 g) were obtained from Charles River Laboratories (Portage, Mich.). The animals were either bilaterally ovariectomized (OVX) or exposed to a Sham surgical procedure at Charles River Laboratories, and then shipped after one week. Upon arrival, they were housed in metal hanging cages in groups of 3 or 4 per cage and had ad libitum access to food (calcium content approximately 0.5%) and water for one week. Room temperature was maintained at 22.2°±1.7° C. with a minimum relative humidity of 40%. The photoperiod in the room was 12 hours light and 12 hours dark. Following the General Preparation Procedure, infra, the rats were treated daily for 35 days (6 rats per treatment group) and sacrificed by decapitation on the 36th day. The 35 day time period was sufficient to allow maximal reduction in bone density, measured as described herein. At the time of sacrifice, the uteri were removed, dissected free of extraneous tissue, and the fluid contents were expelled before determination of wet weight in order to confirm estrogen deficiency associated with complete ovariectomy. […] The uteri were then placed in 10% neutral buffered formalin to allow for subsequent histological analysis. The right femurs were excised and scanned at the distal metaphysis 1 mm from the patellar groove with single photon absorptiometry. Results of the densitometer measurements represent a calculation of bone density as a function of the bone mineral content and bone width. In accordance with the above procedures, compounds of the present invention and ethynyl estradiol (EE2) in 20% hydroxypropyl β-cyclodextrin were orally administered to test animals. Data presented in Tables 5 and 6 below are the results of these treatments compared to intact and ovariectomized test animals. Results are reported as the mean±the standard error of the mean.

[3] = system: ovariectomized (OVX) rats; assay: Uterine wet weight in ovariectomized rat post-menopausal model, 4 days of dosing; format: in vivo, Sprague Dawley rats; settings: oral, daily for 4 days
Experimental: In the examples illustrating the methods, a post-menopausal model was used in which effects of different treatments upon circulating lipids were determined.
as §1, §2

[4] = system: MCF-7 breast adenocarcinoma cells; assay: MCF-7 Proliferation Assay (tritiated thymidine); format: cell-based; settings: Homo sapiens, MCF7; MCF-7 cells, 48 hours with drug, tritiated thymidine pulse 4 hours
Experimental: MCF-7 breast adenocarcinoma cells (ATCC HTB 22) were maintained in MEM (minimal essential medium, phenol red-free, Sigma, St. Louis, Mo.) supplimented with 10% fetal bovine serum (FBS) (V/V), L-glutamine (2 mM), sodium pyruvate (1 mM), HEPES {(N-[2-hydroxyethyl]piperazine-N′-[2-ethanesulfonic acid]10 mM}, non-essential amino acids and bovine insulin (1 ug/mL) (maintenance medium). Ten days prior to assay, MCF-7 cells were switched to maintenance medium supplemented with 10% dextrancoated charcoal stripped fetal bovine serum (DCC-FBS) assay medium) in place of 10% FBS to deplete internal stores of steroids. MCF-7 cells were removed from maintenance flasks using cell dissociation medium (Ca++/Mg++ free HBSS (phenol red-free) supplemented with 10 mM HEPES and 2 mM EDTA). Cells were washed twice with assay medium and adjusted to 80,000 cells/mL. Approximately 100 μL (8,000 cells) were added to flat-bottom microculture wells (Costar 3596) and incubated at 37° C. in a 5% CO2 humidified incubator for 48 hours to allow for cell adherence and equilibration after transfer. Serial dilutions of drugs or DMSO as a diluent control were prepared in assay medium and 50 μL transferred to triplicate microcultures followed by 50 μL assay medium for a final volume of 200 μL. After an additional 48 hours at 37° C. in a 5% CO2 humidified incubator, microcultures were pulsed with tritiated thymidine (1 uCi/well) for 4 hours. Cultures were terminated by freezing at −70° C. for 24 hours followed by thawing and harvesting of microcultures using a Skatron Semiautomatic Cell Harvester. Samples were counted by liquid scintillation using a Wallac BetaPlace β counter. Results in Table 7 below show the IC50 for certain compounds of the present invention.

[5] = system: Uterine Eosinophil Peroxidase (EPO); assay: Uterine Eosinophil Peroxidase (EPO) Assay on uteri of dosed OVX rats; format: in vivo, Sprague Dawley rats; settings: female, Sprague Dawley, rat, in vivo, po, 4 days
Text: as §1, §2
Uterine Eosinophil Peroxidase (EPO) Assay. Uteri were kept at 4° C. until time of enzymatic analysis. The uteri were then homogenized in 50 volumes of 50 mM Tris buffer (pH−8.0) containing 0.005% Triton X-100. Upon addition of 0.01% hydrogen peroxide and 10 mM o-phenylenediamine (final concentrations) in Tris buffer, increase in absorbance was monitored for one minute at 450 nm. The presence of eosonophils in the uterus is an indication of estrogenic activity of a compound. The maximal velocity of a 15 second interval was determined over the initial, linear portion of the reaction curve.

[6] = system: Uterine Eosinophil Peroxidase (EPO); assay: as above; format: in vivo, Sprague Dawley rats; settings: ovariectomized rats

Compound | Serum Cholesterol (% decrease vs. OVX) ([1]; dose 0.1 mg/kg) [%] | Serum Cholesterol (% decrease vs. OVX) ([1]; dose 1.0 mg/kg) [%] | Serum Cholesterol (% decrease vs. OVX) ([1]; dose 10.0 mg/kg) [%] | Bone Density ([2]; Table 5, oral, 0.01 mg/kg, OVX control 26.18, intact control 70.22, * P <= 0.05) [mg/cm/cm] | Bone Density ([2]; Table 5, oral, 0.1 mg/kg, OVX control 26.18, intact control 70.22, * P <= 0.05) [mg/cm/cm] | Bone Density ([2]; Table 6, oral, 0.01 mg/kg, OVX control 32.46, intact control 81.27, * P <= 0.05) [mg/cm/cm] | Bone Density ([2]; Table 6, oral, 1.0 mg/kg, OVX control 32.46, intact control 81.27, * P <= 0.05) [mg/cm/cm] | Uterine Weight (% increase vs. OVX) ([3]; dose 0.1 mg/kg) [%] | Uterine Weight (% increase vs. OVX) ([3]; dose 1.0 mg/kg) [%] | Uterine Weight (% increase vs. OVX) ([3]; dose 10.0 mg/kg) [%] | IC50 [4] [nM] | Uterine EPO (V. max) ([5]; 0.1 mg/kg) | Uterine EPO (V. max) ([5]; 1 mg/kg) | Uterine EPO (V. max) ([5]; 10 mg/kg) | Eosinophil infiltration into the uterus (number of eosinophils in the stromal layer, in words) [6]
CC(C)(C)C(=O)Oc1ccc(-c2sc3cc(OC(=O)C(C)(C)C)ccc3c2Cc2ccc(OCCN3CCCCC3)cc2)cc1 [(q)-Ex17, [6-{1,1,1-Trimethylacetyloxy}-2-(4-{1,1,1-Trimethylacetyloxy}Phenyl)Benzo[B]Thien-3-Yl][4-[2-(1-Piperidinyl)Ethoxy]Phenyl]Methane Hydrochloride] | 55.8 | 56.8 | 58.8 | 17.63 ± 2.94 | 24.77 ± 4.65 | 36.44 ± 44 | 36.07 ± 4.20 | −22.7 | −32.4 | −25.2 | 0.01 | 3.1 | 3.0 | 2.8 | 
C[C@]12CC[C@@H]3c4ccc(O)cc4CC[C@H]3[C@@H]1CC[C@@H]2O [estradiol] |  |  |  |  |  |  |  |  |  |  |  |  |  |  | substantial, expected increase in eosinophil infiltration
